# Source: patent US9353171B2 (The Administrators of the Tulane Educational Fund, priority 2011, dated 2016)
# Bridges are numbered along the chain shown (N, C = ends). Where no end group is shown, it is not given here.
# B1: Maxadilan: 61-amino-acid peptide with two disulfide bridges from salivary glands of the sand fly Lutzomyia longipalpis; conformational analog of PACAP (peptide, listed as Lutzomyia longipalpis)
# chain: CDATCQFRKAIEDCRKKAHHSDVLQTSVQTTATFTSMDTSQLPGSGVFKECMKQKAKEFKA
# modifications: disulfide 1-5; disulfide 14-51 (inferred)
# notes: 61-amino-acid peptide with two disulfide bridges from salivary glands of the sand fly Lutzomyia longipalpis; conformational analog of PACAP
# Legend:
# [1] = tested on: human renal proximal tubule epithelial cells (HK-2 human kidney cells); test: Urografin-induced injury (cytotoxicity) of HK-2 cells, lactate dehydrogenase activity in the culture medium; assay type: cell-based; settings: for Urografin-induced cell death of human renal proximal tubule epithelial cells: various concentrations added to the medium
# Procedure: The HK-2 human kidney cells were cultured in Keratinocyte-Serum Free Medium supplemented with recombinant epidermal growth factor and bovine pituitary extract. […] Each value represents the mean plus/minus the standard error of four determinations. **p<0.01 and *p<0.05 compared to the cells treated only with Urografin.
# The HK-2 human kidney cells were cultured in Keratinocyte-Serum Free Medium supplemented with recombinant epidermal growth factor and bovine pituitary extract. […] Each value represents the mean plus/minus the standard error of eight determinations. **p<0.01 and *p<0.05 compared to the cells treated only with Urografin. The ID numbers in the figure correspond to the SEQ ID NO numbers in the Sequence Listing. ID1=PACAP38, ID2=PACAP27, ID4=[D-Ser^2]PACAP38, ID5=[Aib^2]PACAP38, ID6=[D-Ser^2,Lys^38-palmitoyl]PACAP38, ID8=[Ala^22]PACAP38, ID10=[Lys^34]PACAP38, ID38=N-acetyl[Pip^3]PACAP38, ID39=[Pip^3,Ala^14,17,Aib^16,28,Lys^34, D-Lys^38]PACAP38, and ID40=[Pip^3,Ala^15,17,Aib^16,28,Lys^34,D-Lys^38]PACAP38.
# (§1) At the highest dose tested, PACAP38 reduced the cell death caused by Urografin by more than 70%.
# [2] = tested on: human renal proximal tubule epithelial cells (HK-2 human kidney cells); test: Secretion of KIM-1 by HK-2 cells treated with Urografin or iohexol, ELISA of culture medium; assay type: cell-based; settings: 10^−6 M PACAP38, ELISA (FIG. 5)
# Procedure: The HK-2 human kidney cells were cultured in Keratinocyte-Serum Free Medium supplemented with recombinant epidermal growth factor and bovine pituitary extract. The effects of 10^−6 M PACAP38 on the excretion of KIM-1 were assessed by determining the concentration of KIM-1 in the culture medium with an enzyme-linked immunosorbent assay. Each value represents the mean plus/minus the standard error of three determinations. **p<0.01 and *p<0.05 compared to the cells treated only with Urografin.
# as §1
# [3] = tested on: male homozygous eNOS-deficient mice; test: Mouse model of contrast-induced nephropathy (Urografin i.v.), serum and kidney biomarkers; assay type: in vivo; settings: 72 h
# Procedure: (§2) Male homozygous eNOS-deficient mice were given a single intravenous injection of Urografin at a dose of 1.85 g iodine/kg body weight. The mice were deprived of water for 24 hours before the start of the experiment. Twenty micrograms of PACAP38 were given intraperitoneally 1 hour before the injection of Urografin and an additional dose was given 12 hours later. The control group of mice was injected intravenously with the same volume of saline as for the injections of Urografin and PACAP38 on the same schedule. The mice were euthanized 72 hours after the injection of Urografin. The concentration of cystatin C in serum was determined with an enzyme-linked immunosorbent assay. Each value represents the mean plus/minus the standard error of five or eight determinations. **p<0.01 compared to the group treated with Urografin and saline.
# as §2, with “control” for “control group of”, “mice were” for “mice was”, “Urografin. Quantification” for “Urografin. The concentration”, “of mRNA levels for KIM-1” for “of cystatin C in serum”, “was made by real-time reverse transcriptase polymerase chain reaction analyses.” for “was determined with an enzyme-linked immunosorbent assay.”
# as §2, with “control” for “control group of”, “mice were” for “mice was”, “Urografin. Quantification” for “Urografin. The concentration”, “of mRNA levels for netrin-1” for “of cystatin C in serum”, “was made by real-time reverse transcriptase polymerase chain reaction analyses.” for “was determined with an enzyme-linked immunosorbent assay.”
# as §2, with “control” for “control group of”, “mice were” for “mice was”, “Urografin. Quantification” for “Urografin. The concentration”, “of mRNA levels for TNF-α” for “of cystatin C in serum”, “was made by real-time reverse transcriptase polymerase chain reaction analyses.” for “was determined with an enzyme-linked immunosorbent assay.”, “**p<0.01 and *p<0.05” for “**p<0.01”
# Male homozygous eNOS-deficient mice were given a single intravenous injection of Urografin at a dose of 1.85 g iodine/kg body weight. The mice were deprived of water for 24 hours before the start of the experiment. Twenty micrograms of PACAP38 were given intraperitoneally 1 hour before the injection of Urografin and an additional dose was given 12 hours later. The control mice were injected intravenously with the same volume of saline as for the injections of Urografin and PACAP38 on the same schedule. The mice were euthanized 72 hours after the injection of Urografin. […]
# [4] = tested on: human renal proximal tubule epithelial cells (HK-2 human kidney cells); test: Iohexol-induced inhibition of proliferation / loss of viable HK-2 cells, MTT conversion; assay type: cell-based; settings: for loss of viable human renal proximal tubule epithelial cells caused by iohexol: various concentrations
# Procedure: The HK-2 human kidney cells were cultured in Keratinocyte-Serum Free Medium supplemented with recombinant epidermal growth factor and bovine pituitary extract. […] Each value represents the mean plus/minus the standard error of four determinations. **p<0.01 and *p<0.05 compared to the cells treated only with iohexol.
# [5] = rat, in vivo, iv; cited from earlier work
# PAC1 receptor = target: T1, PAC1 receptor (Homo sapiens, UniProt P41586); settings: in words; cited from earlier work
# T1 sequence (P41586 21-468): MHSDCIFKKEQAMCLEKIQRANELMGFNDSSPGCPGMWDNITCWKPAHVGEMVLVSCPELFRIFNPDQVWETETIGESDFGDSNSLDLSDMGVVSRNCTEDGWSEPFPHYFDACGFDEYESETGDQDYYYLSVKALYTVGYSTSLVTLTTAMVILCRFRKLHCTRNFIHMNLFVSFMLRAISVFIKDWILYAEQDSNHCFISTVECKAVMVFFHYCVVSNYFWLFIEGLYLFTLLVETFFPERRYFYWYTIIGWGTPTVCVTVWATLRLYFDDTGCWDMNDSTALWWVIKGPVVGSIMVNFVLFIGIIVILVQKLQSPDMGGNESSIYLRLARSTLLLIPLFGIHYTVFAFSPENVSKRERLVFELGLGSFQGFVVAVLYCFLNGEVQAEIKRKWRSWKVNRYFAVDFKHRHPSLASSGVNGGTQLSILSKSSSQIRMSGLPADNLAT
molecule,measurement,setting,value
PACAP38,potency against Urografin-induced cell injury compared with VIP,"[1]; 10^−8 M (p<0.05), 10^−7 M (p<0.01) and 10^−6 M (p<0.01) (FIG. 2)",significantly more potent than VIP
same,reduction of the cell death caused by Urografin,"[1]; highest dose tested, HK-2 cells, LDH in medium (FIG. 2)",more than 70%
same,Urografin-induced cell death of human renal proximal tubule epithelial cells,[1]; LDH in medium (FIG. 2),significant dose-dependent reduction
same,Urografin-induced secretion of KIM-1 into the medium,[2],significantly reduced
same,iohexol-induced secretion of KIM-1 into the medium,[2],significantly reduced
same,Urografin-induced increase in serum levels of cystatin C,"[3]; 20 μg i.p. 1 h before and 12 h after Urografin 1.85 g iodine/kg i.v., ELISA (FIG. 6)",reversed the increases
same,Urografin-induced increase in kidney levels of TNF-α protein,"[3]; 20 μg i.p. 1 h before and 12 h after Urografin, ELISA (FIG. 16)",reversed the increases
same,Urografin-induced increase in kidney levels of TGF-β1 protein,"[3]; 20 μg i.p. 1 h before and 12 h after Urografin, ELISA (FIG. 17)",reversed the increases
same,Urografin-induced increase in kidney levels of MCP-1 protein,"[3]; 20 μg i.p. 1 h before and 12 h after Urografin, ELISA (FIG. 18)",reversed the increases
same,Urografin-induced increase in kidney levels of IFN-γ protein,"[3]; 20 μg i.p. 1 h before and 12 h after Urografin, ELISA (FIG. 19)",reversed the increases
same,Urografin-induced increase in serum levels of creatinine,"[3]; 20 μg i.p. 1 h before and 12 h after Urografin, LC-MS/MS (FIG. 11)",reversed the increases
same,Urografin-induced increase in kidney levels of KIM-1 mRNA,"[3]; 20 μg i.p. 1 h before and 12 h after Urografin, real-time RT-PCR (FIG. 7)",reversed the increases
same,Urografin-induced increase in kidney levels of netrin-1 mRNA,"[3]; 20 μg i.p. 1 h before and 12 h after Urografin, real-time RT-PCR (FIG. 8)",reversed the increases
same,Urografin-induced increase in kidney levels of TNF-α mRNA,"[3]; 20 μg i.p. 1 h before and 12 h after Urografin, real-time RT-PCR (FIG. 9)",reversed the increases
same,Urografin-induced increase in kidney levels of iNOS mRNA,"[3]; 20 μg i.p. 1 h before and 12 h after Urografin, real-time RT-PCR (FIG. 10)",reversed the increases
same,Urografin-induced increase in kidney levels of Nogo-B1 mRNA,"[3]; 20 μg i.p. 1 h before and 12 h after Urografin, real-time RT-PCR (FIG. 12)",reversed the increases
same,Urografin-induced increase in kidney levels of TGF-β1 mRNA,"[3]; 20 μg i.p. 1 h before and 12 h after Urografin, real-time RT-PCR (FIG. 13)",reversed the increases
same,Urografin-induced increase in kidney levels of Nox-4 mRNA,"[3]; 20 μg i.p. 1 h before and 12 h after Urografin, real-time RT-PCR (FIG. 14)",reversed the increases
same,Urografin-induced increase in kidney levels of Nox-2 mRNA,"[3]; 20 μg i.p. 1 h before and 12 h after Urografin, real-time RT-PCR (FIG. 15)",reversed the increases
same,potency as renoprotectant against iohexol compared with VIP,[4]; 10^−7 M and 10^−6 M (FIG. 4),significantly more potent than VIP
same,loss of viable human renal proximal tubule epithelial cells caused by iohexol at the highest dose,"[4]; highest dose tested, MTT (FIG. 4)",almost completely prevented
same,loss of viable human renal proximal tubule epithelial cells caused by iohexol,[4]; MTT (FIG. 4),significant dose-dependent reduction
[^125I]-PACAP38: radioiodinated PACAP38 used in a cited rat half-life study,half-life in the bloodstream,[5],5 to 6 min
VIP (HSDAVFTDNYTRLRKQMAVKKYLNSILN-NH2; listed as Homo sapiens),Urografin-induced cell death of human renal proximal tubule epithelial cells,[1]; LDH in medium (FIG. 2),significant dose-dependent reduction
same,loss of viable human renal proximal tubule epithelial cells caused by iohexol,[4]; MTT (FIG. 4),significant dose-dependent reduction
B1,binding to the PAC1 receptor,PAC1 receptor,high affinity
